Measured values published in patent US20210353683A1, “ADDITIVE FOR MEDIUM FOR PROMOTING PRODUCTION OF PARACRINE FACTOR” (NISSAN CHEMICAL CORPORATION, priority 2018, published 2021).

What was measured:
Format in all cases: cell-based
[1] = tested on: Human bone marrow-derived mesenchymal stem cells (hMSC); experiment: Paracrine factor release amount test 2: Stanniocalcin-1 (STC-1) in culture supernatant by ELISA; settings: 5 μM for 48 hr, then 48 hr in compound-free medium, relative to 2D DMSO control
Method: (§1) Human bone marrow-derived mesenchymal stem cells (hMSC, manufactured by PromoCell) were precultured by a single layer culture method (2D) using Mesenchymal Stem Cell Growth Medium 2 (manufactured by PromoCell). hMSCs were suspended in the same medium. In three-dimensional culture method (3D), hMSCs were seeded at 5×10^5 cells/2 mL/well on a cell-non-adhesive 6-well EZSPHERE plate (manufactured by AGC TECHNO GLASS, #4810-900) having a depression on the bottom surface. In 2D, hMSCs were seeded on a 6-well flat bottom plate (manufactured by Corning Incorporated, #3516) at 5×10^5 cells/2 mL/well. Continuously, compound k-1:B-1 dissolved in DMSO was added at 2 μL/well to a final concentration of 5 μM, and the mixture was cultured in an incubator at 37° C., 5% CO2 for 48 hr. […] The number of cells at the time of recovery of the culture supernatant was measured by dispersing the cells in single cells using Detach Kit (manufactured by PromoCell), suspending a part thereof in Trypan Blue (manufactured by Wako Pure Chemical Industries, Ltd.) and counting the number of viable cells using TC-20 (manufactured by BIO-RAD).
Stanniocalcin-1 (STC-1), a cytokine which is one kind of paracrine factor contained in the culture supernatant, was quantified using a plate reader. For the quantification, Human Stanniocalcin ELISA Kit (manufactured by Abcam, #ab213829) was used. […]

[2] = tested on: Human bone marrow-derived mesenchymal stem cells (hMSC); experiment: Paracrine factor release amount test 1: Angiogenin (ANG) in culture supernatant by ELISA; settings: 5 μM for 48 hr, then 48 hr in compound-free medium, relative to 2D DMSO control
Method: (§2) Human bone marrow-derived mesenchymal stem cells (hMSC, manufactured by PromoCell) were precultured by a single layer culture method (2D) using Mesenchymal Stem Cell Growth Medium 2 (manufactured by PromoCell). hMSCs were suspended in the same medium. In three-dimensional culture method (3D), hMSCs were seeded at 5×10^5 cells/2 mL/well on a cell-non-adhesive 6-well EZSPHERE plate (manufactured by AGC TECHNO GLASS, #4810-900) having a depression on the bottom surface. In 2D, hMSCs were seeded on a 6-well flat bottom plate (manufactured by Corning Incorporated, #3516) at 5×10^5 cells/2 Continuously, compounds k-1:B-1, k-1:D-1, k-1:J-1 dissolved in DMSO were added at 2 μL/well to a final concentration of 5 μM, and the mixture was cultured in an incubator at 37° C., 5% CO2 for 48 hr. As a control, DMSO was added at a final concentration of 0.05%. After 48 hr, the medium was exchanged with a medium not containing the compound, and the cells were cultured in an incubator at 37° C., 5% CO2. After 48 hr, the culture supernatant was recovered. The number of cells at the time of recovery of the culture supernatant was measured by dispersing the cells in single cells using Detach Kit (manufactured by PromoCell), suspending a part thereof in Trypan Blue (manufactured by Wako Pure Chemical Industries, Ltd.) and counting the number of viable cells using TC-20 (manufactured by BIO-RAD).
Angiogenin (ANG), a cytokine which is one kind of paracrine factor contained in the culture supernatant, was quantified using a plate reader. For the quantification, Human Angiogenin ELISA Kit (manufactured by Abcam, #ab99970) was used.
(§3) The concentration of ANG in the culture supernatant was normalized by the cell count, and the relative values for the control group cultured in 2D are shown in Table 4. As a result, the secretion amount increased in both 2D culture and 3D culture by adding compounds k-1:B-1, k-1:D-1, and compound k-1:J-1. Therefrom it was clarified that the secretion of the paracrine factor can be promoted by adding the compounds k-1:B-1, k-1:D-1, and compound k-1:J-1 to the mesenchymal stem cells.

[3] = tested on: Human bone marrow-derived mesenchymal stem cells (hMSC); experiment: Paracrine factor release amount test 3: VEGF in culture supernatant by ELISA; settings: 5 μM for 48 hr, then 48 hr in compound-free medium, relative to 2D DMSO control
Method: as §2, with “5×10^5 cells/2 mL/well. Continuously, compounds” for “5×10^5 cells/2 Continuously, compounds”
Vascular endothelial growth factor (VEGF), a cytokine which is one kind of paracrine factor contained in the culture supernatant, was quantified using a plate reader. For the quantification, Human VEGF ELISA Kit (manufactured by Abcam, #ab100662) was used.
as §3, with “VEGF” for “ANG”, “7.” for “4.”

[4] = tested on: Human bone marrow-derived mesenchymal stem cells (hMSC); experiment: Paracrine factor release under inflammation stimulation (TNFα): MCP-1 in culture supernatant by flow cytometer; settings: 5 μM for 48 hr, then 48 hr with 10 ng/mL TNFα only, relative to 2D DMSO control
Method: as §1, with “mL/well.” for “mL/well. Continuously, compound k-1:B-1 dissolved in DMSO was added at 2 μL/well to a final concentration of 5 μM, and the mixture was cultured in an incubator at 37° C., 5% CO2 for 48 hr.”
Monocyte Chemotactic Protein-1 (MCP-1), a cytokine which is one kind of paracrine factor contained in the culture supernatant, was quantified using a flow cytometer. The quantification analysis was performed using BD™ CBA Flex Set (manufactured by BD 558287) according to the protocol of BD. […]

[5] = tested on: Human bone marrow-derived mesenchymal stem cells (hMSC); experiment: Paracrine factor release under inflammation stimulation (TNFα): TSG-6 in culture supernatant by ELISA; settings: 5 μM for 48 hr, then 48 hr with 10 ng/mL TNFα only, relative to 2D DMSO control
Method: as §1, with “k-1:J-1” for “k-1:B-1”, “hr. As a control, DMSO was added at a final concentration of 0.05%.” for “hr.”
Tumor necrosis factor-inducible gene 6 protein (TSG-6), a cytokine which is one kind of paracrine factor contained in the culture supernatant, was quantified using a plate reader. […]

SMILES | STC-1, relative value of secretion amount (pg) per 10000 cells ([1]; 2D culture) | STC-1, relative value of secretion amount (pg) per 10000 cells ([1]; 3D culture) | ANG, relative value of secretion amount (pg) per 10000 cells ([2]; 2D culture) | ANG, relative value of secretion amount (pg) per 10000 cells ([2]; 3D culture) | VEGF, relative value of secretion amount (pg) per 10000 cells ([3]; 2D culture) | VEGF, relative value of secretion amount (pg) per 10000 cells ([3]; 3D culture) | MCP-1, relative value of secretion amount (pg) per 10000 cells ([4]; 2D culture) | MCP-1, relative value of secretion amount (pg) per 10000 cells ([4]; 3D culture) | TSG-6, relative value of secretion amount (pg) per 10000 cells ([5]; 2D culture) | TSG-6, relative value of secretion amount (pg) per 10000 cells ([5]; 3D culture)
CCC(=NNC(=O)C(C)Nc1ccccc1)c1ccc(O)c(C)c1O (racemic) [k-1:B-1] | 2.67 | 8.95 | 1.34 | 1.38 | 4.40 | 3.59 | – | – | – | –
CCC(=NNC(=O)CNc1cccc(O)c1)c1ccc(O)c(C)c1O [k-1:D-1] | – | – | – | 1.50 | – | 3.27 | – | – | – | –
CCC(=NNC(=O)NCc1cccc(O)c1)c1ccc(O)c(C)c1O [k-1:J-1] | – | – | – | 1.38 | – | 6.18 | 0.85 | 1.41 | 1.56 | 3.21
